Laboratory results reported in patent US20080221115A1, “Use of long-chain alcohol derivatives for the treatment of alopecia areata” (priority 2007, published 2008).

Tests used:
[1] = tested on: alopecia greata in C3H/HeJ mice; settings: for effective in treating the alopecia greata in C3H/HeJ mice: conclusion in words from Example 1; for Average score: hair amount and hair growth in biopsies from mustache, face, head, neck, back, stomach graded 1 (no hair) to 5 (full growth), averaged per group, day 93, negative control (PBS) 2.48; for Average score / Overall score: 25 mg/ml in PBS, topical; for Overall score: overall appearance graded on a scale of 1 (50% of mouse hairless) to 5 (full hair), group mean, 40 μl per cm^2 lesion, day 93 from the beginning of the treatment, negative control (PBS) 2.7
Method: The young mice will develop the disease subsequent to grafting.
Lesional grafts from old C3H/HeJ mice were grafted onto young C3H/HeJ mice. On day 30-40 post-graft the mice were randomized into groups with approximately the same degree of alopecia greata pathology.
Group 1: negative control, phosphate buffered saline (PBS).
Treatment was initiated on the day of randomization into groups. Mice were treated by providing 40 μl of solution per cm^2 lesion. The solution was evenly spread and was allowed to soak into the skin. Mice were observed twice weekly and the size of patches was measured and documented.
Treatment solutions were prepared freshly each day.
At the end of the study, skin biopsies were evaluated in a blinded manner. The hair amount and hair growth from biopsies from mice mustache, face, head, neck, back, and stomach were graded from 1 to 5. A rating of 1 represented no hair, and a rating of 5 represented full growth. These scores were calculated for each mouse and averaged, and the average for each group is shown below as “average score.”
In addition, the mice were graded based on their overall appearance on a scale of 1 to 5 for “overall score.”
Score 1=50% of mouse hairless.
Score 2=20-40% of mouse hairless.
Score 3=hairless patch covering up to 20% of mouse.
Score 4=thin hair, or local small hairless patch.
There were 7 mice in each of the test compound groups and 5 mice in the negative control group.
The scoring occurred on day 93 from the beginning of the treatment.

[2] = tested on: delayed-type hypersensitivity model in mice; settings: disclosed in WO 2004/032824; cited from earlier work
[3] = tested on: EAE model in rats; settings: disclosed in WO 2004/032824; cited from earlier work

| Structure (SMILES) | effective in treating the alopecia greata in C3H/HeJ mice [1] | Average score [1] | Overall score [1] | results in a delayed-type hypersensitivity model in mice [2] | results in an EAE model in rats [3] |
| --- | --- | --- | --- | --- | --- |
| CCCCCCCC/C=C\CCCCCCCCOC(=O)C(N)c1ccccc1.Cl (stereo not drawn) [compound 1, amino-phenyl-acetic acid octadec-(Z)-9-enyl ester HCl] | effective | 3.11 | 3.5 | positive results |  |
| CCCCCCCC/C=C\CCCCCCCCOC(=O)CN1CCNCC1.O=C(O)C(O)C(O)C(=O)O [compound 2] | effective | 2.91 | 3.5 | positive results | positive results |
